Patent publication US9556165B2 (priority 2012, dated 2017)
Converted amounts (≈) assume the structure as drawn. Like-named read-outs stand apart in the source and are kept apart here.

How the values were obtained:
Format in all cases: cell-based
[1] = system: E. cloacae 34654; test: MIC determination, broth microdilution (CLSI); settings: Enterobacter cloacae, 34654, strain 3
[2] = system: E. coli J62-TEM-3; test: MIC determination, broth microdilution (CLSI); settings: Escherichia coli, J62TEM3, read-out: MIC strain 18 (E. coli J62-TEM-3), strain 18; broth microdilution
[3] = system: E. coli ATCC25922; test: MIC determination, broth microdilution (CLSI); settings: Escherichia coli, ATCC25922, strain 1
[4] = system: P. aeruginosa 2297 (AmpC wt); test: MIC determination, broth microdilution (CLSI); settings: Pseudomonas aeruginosa, strain 7
[5] = system: S. maltophilia ICB7569; test: MIC determination, broth microdilution (CLSI); settings: Stenotrophomonas maltophilia, ICB7569, strain 10
[6] = system: Bacteria; test: MIC determination in combination with β-lactamase inhibitors (constant 4 μg/mL)
[7] = system: S. aureus 133; test: MIC determination, broth microdilution (CLSI)
[8] = system: H. influenzae ATCC 49247; test: MIC determination, broth microdilution (CLSI); settings: Haemophilus influenzae, ATCC49247, strain 12; broth microdilution; read-out: MIC strain 12 (H. influenzae ATCC 49247)
[9] = system: S. pneumoniae 113; test: MIC determination, broth microdilution (CLSI); settings: Streptococcus pneumoniae, 113, strain 13; broth microdilution; read-out: MIC strain 13 (S. pneumoniae 113)
[10] = system: P. aeruginosa 2297-con (AmpC derepressed); test: MIC determination, broth microdilution (CLSI); settings: Pseudomonas aeruginosa, read-out: strain 8 MIC, strain 8
[11] = system: E. coli J62; test: MIC determination, broth microdilution (CLSI); settings: Escherichia coli, J62, strain 17; broth microdilution; read-out: MIC strain 17 (E. coli J62)
[12] = system: C. freundii K21/3034; test: MIC determination, broth microdilution (CLSI); settings: Citrobacter freundii, K21/3034, strain 4
[13] = system: M. morganii 126/3048; test: MIC determination, broth microdilution (CLSI); settings: Morganella morganii, 126/3048, strain 5
[14] = system: B. fragilis 6688; test: MIC determination, broth microdilution (CLSI); settings: Bacteroides fragilis, 6688, strain 15; broth microdilution; read-out: MIC strain 15 (B. fragilis 6688)
[15] = system: A. baumannii ATCC15308; test: MIC determination, broth microdilution (CLSI); settings: Acinetobacter baumannii, ATCC15308, strain 9
[16] = system: K. pneumoniae 60; test: MIC determination, broth microdilution (CLSI); settings: Klebsiella pneumoniae, 60, strain 2
[17] = system: P. aeruginosa PAO1; test: MIC determination, broth microdilution (CLSI); settings: Pseudomonas aeruginosa, PAO1, strain 6
[18] = system: C. perfringens DSM756; test: microbe, parasite or virus in culture; settings: Clostridium perfringens, DSM756, read-out: MIC strain 16 (C. perfringens DSM756), strain 16; broth microdilution
[19] = Staphylococcus aureus, 133, strain 11, read-out: strain 11 MIC
[20] = Staphylococcus aureus, 133, strain 14, broth microdilution, read-out: MIC strain 14 (S. aureus 133)

Row | SMILES | MIC [1] [µg/mL] | MIC [2] [µg/mL] | MIC [3] [µg/mL] | MIC [4] [µg/mL] | MIC [5] [µg/mL] | MIC strain 19 (E. coli J62-TEM-3 + 4 μg/mL clavulanic acid) [6] | MIC strain 20 (E. coli J62-TEM-3 + 4 μg/mL sulbactam) [6] | MIC strain 21 (E. coli J62-TEM-3 + 4 μg/mL tazobactam) [6] | MIC [7, 20] [µg/mL] | MIC [8] [µg/mL] | MIC [9] [µg/mL] | MIC [10] [µg/mL] | MIC [11] [µg/mL] | MIC [12] [µg/mL] | MIC [13] [µg/mL] | MIC [14] [µg/mL] | MIC [15] [µg/mL] | MIC [16] [µg/mL] | MIC [17] [µg/mL] | MIC [18] [µg/mL] | other results
1 | CC1(C)[C@H](NC(=O)/C(=N\OCCOc2ccc(C(=N)NCCNC(=N)N)cc2)c2csc(N)n2)C(=O)N1OS(=O)(=O)O [Example 78, (2Z)-2-(2-Amino-1,3-thiazol-4-yl)-2-[(2-{4-[N-(2-carbamimidamidoethyl)carbamimidoyl]phenoxy}ethoxy)imino]-N-[(3S)-2,2-dimethyl-4-oxo-1-(sulfooxy)azetidin-3-yl]ethanamide] | 0.5 (≈ 0.798 µM) | 4 (≈ 6.38 µM) | 0.25 (≈ 0.399 µM) | 4 (≈ 6.38 µM) | 8 (≈ 12.8 µM) | 0.25 µg/mL | 0.5 µg/mL | 0.5 µg/mL | 1 (≈ 1.6 µM) | ≤ 0.063 | ≤ 0.063 | 2 (≈ 3.19 µM) | 0.5 (≈ 0.798 µM) | 0.25 (≈ 0.399 µM) | 0.5 (≈ 0.798 µM) | 4 (≈ 6.38 µM) | 0.25 (≈ 0.399 µM) | 0.25 (≈ 0.399 µM) | 4 (≈ 6.38 µM) | 2 (≈ 3.19 µM) | MIC [7, 19]: ≤ 0.063 µg/mL
2 | CC1(C)[C@H](NC(=O)/C(=N\OCCOc2ccc(C(=N)NCCN)nc2)c2csc(N)n2)C(=O)N1OS(=O)(=O)O [Example 82, (2Z)-2-{[2-({6-[N-(2-Aminoethyl)carbamimidoyl]pyridin-3-yl}oxy)ethoxy]imino}-2-(2-amino-1,3-thiazol-4-yl)-N-[(3S)-2,2-dimethyl-4-oxo-1-(sulfooxy)azetidin-3-yl]ethanamide] | 0.5 (≈ 0.854 µM) | 8 (≈ 13.7 µM) | 0.25 (≈ 0.427 µM) | 16 (≈ 27.3 µM) | 32 (≈ 54.6 µM) | 0.25 µg/mL | 0.25 µg/mL | 0.5 µg/mL | 8 (≈ 13.7 µM) | ≤ 0.063 | ≤ 0.063 | 8 (≈ 13.7 µM) | 0.25 (≈ 0.427 µM) | 0.25 (≈ 0.427 µM) | 0.5 (≈ 0.854 µM) | 4 (≈ 6.83 µM) | 4 (≈ 6.83 µM) | 0.125 (≈ 0.213 µM) | 8 (≈ 13.7 µM) | 4 (≈ 6.83 µM) | MIC [7, 19]: ≤ 0.063 µg/mL
3 | CC1(C)[C@H](NC(=O)/C(=N\OCCOc2ccc(C(=N)NCCCN)cc2)c2csc(N)n2)C(=O)N1OS(=O)(=O)O [Example 83, (2Z)-2-[(2-{4-[N-(3-Aminopropyl)carbamimidoyl]phenoxy}ethoxy)imino]-2-(2-amino-1,3-thiazol-4-yl)-N-[(3S)-2,2-dimethyl-4-oxo-1-(sulfooxy)azetidin-3-yl]ethanamide] | 0.25 (≈ 0.418 µM) | 4 (≈ 6.68 µM) | 0.125 (≈ 0.209 µM) | 4 (≈ 6.68 µM) | 16 (≈ 26.7 µM) | 0.125 µg/mL | 0.25 µg/mL | 0.25 µg/mL | 2 (≈ 3.34 µM) | ≤ 0.063 | ≤ 0.063 | 4 (≈ 6.68 µM) | 0.25 (≈ 0.418 µM) | 0.125 (≈ 0.209 µM) | 0.5 (≈ 0.835 µM) | 4 (≈ 6.68 µM) | 0.25 (≈ 0.418 µM) | 0.25 (≈ 0.418 µM) | 2 (≈ 3.34 µM) | 2 (≈ 3.34 µM) | MIC [7, 19]: ≤ 0.063 µg/mL
4 | CC1(C)[C@H](NC(=O)/C(=N\OCCOc2ccc(C(=N)NC(CN)CN)cc2)c2csc(N)n2)C(=O)N1OS(=O)(=O)O [Example 84, (2Z)-2-(2-Amino-1,3-thiazol-4-yl)-2-[(2-{4-[N-(1,3-diaminopropan-2-yl)carbamimidoyl]phenoxy}ethoxy)imino]-N-[(3S)-2,2-dimethyl-4-oxo-1-(sulfooxy)azetidin-3-yl]ethanamide] | 0.125 (≈ 0.204 µM) | 4 (≈ 6.52 µM) | ≤ 0.063 | 2 (≈ 3.26 µM) | 32 (≈ 52.1 µM) | ≦0.063 mg/L | 0.125 µg/mL | 0.125 µg/mL | 2 (≈ 3.26 µM) | ≤ 0.063 | ≤ 0.063 | 2 (≈ 3.26 µM) | 0.125 (≈ 0.204 µM) | ≤ 0.063 | 0.25 (≈ 0.407 µM) | 4 (≈ 6.52 µM) | 1 (≈ 1.63 µM) | 0.125 (≈ 0.204 µM) | 1 (≈ 1.63 µM) | 2 (≈ 3.26 µM) | MIC [7, 19]: ≤ 0.063 µg/mL
5 | CC1(C)[C@H](NC(=O)/C(=N\OCCOc2ccc(C(=N)N[C@H](CN)CO)cc2)c2csc(N)n2)C(=O)N1OS(=O)(=O)O [Example 85, (2Z)-2-{[2-(4-{N-[(2R)-1-Amino-3-hydroxypropan-2-yl]carbamimidoyl}phenoxy)ethoxy]imino}-2-(2-amino-1,3-thiazol-4-yl)-N-[(3S)-2,2-dimethyl-4-oxo-1-(sulfooxy)azetidin-3-yl]ethanamide] | 0.5 (≈ 0.813 µM) | 8 (≈ 13 µM) | 0.25 (≈ 0.407 µM) | 8 (≈ 13 µM) | 32 (≈ 52.1 µM) | 0.25 µg/mL | 0.25 µg/mL | 0.5 µg/mL | 8 (≈ 13 µM) | ≤ 0.063 | ≤ 0.063 | 8 (≈ 13 µM) | 0.5 (≈ 0.813 µM) | 0.25 (≈ 0.407 µM) | 0.25 (≈ 0.407 µM) | 4 (≈ 6.51 µM) | 2 (≈ 3.25 µM) | 0.5 (≈ 0.813 µM) | 4 (≈ 6.51 µM) | 4 (≈ 6.51 µM) | MIC [7, 19]: ≤ 0.063 µg/mL
6 | CC1(C)[C@H](NC(=O)/C(=N\OCCOc2ccc(C3=NCC(N)CN3)cc2)c2csc(N)n2)C(=O)N1OS(=O)(=O)O (stereo partly drawn) [Example 86, (2Z)-2-({2-[4-(5-Amino-1,4,5,6-tetrahydropyrimidin-2-yl)phenoxy]ethoxy}imino)-2-(2-amino-1,3-thiazol-4-yl)-N-[(3S)-2,2-dimethyl-4-oxo-1-(sulfooxy)azetidin-3-yl]ethanamide] | 0.5 (≈ 0.838 µM) | 16 (≈ 26.8 µM) | 0.25 (≈ 0.419 µM) | 8 (≈ 13.4 µM) | 32 (≈ 53.6 µM) | 0.25 µg/mL | 0.25 µg/mL | 0.5 µg/mL | 4 (≈ 6.7 µM) | ≤ 0.063 | ≤ 0.063 | 8 (≈ 13.4 µM) | 0.25 (≈ 0.419 µM) | 0.25 (≈ 0.419 µM) | 0.5 (≈ 0.838 µM) | 4 (≈ 6.7 µM) | 2 (≈ 3.35 µM) | 0.5 (≈ 0.838 µM) | 4 (≈ 6.7 µM) | 2 (≈ 3.35 µM) | MIC [7, 19]: ≤ 0.063 µg/mL
7 | CC1(C)[C@H](NC(=O)/C(=N\O[C@@H](COc2ccc(C(=N)N[C@@H]3CCCNC3)cc2)C(=O)O)c2csc(N)n2)C(=O)N1OS(=O)(=O)O [Example 88, (2S)-2-({[(1Z)-1-(2-Amino-1,3-thiazol-4-yl)-2-{[(3S)-2,2-dimethyl-4-oxo-1-(sulfooxy)azetidin-3-yl]amino}-2-oxoethylidene]amino}oxy)-3-(4-{N-[(3R)-piperidin-3-yl]carbamimidoyl}phenoxy)propanoic acid] | ≤ 0.063 | 2 (≈ 2.99 µM) | ≤ 0.063 | 1 (≈ 1.5 µM) | 4 (≈ 5.98 µM) | ≦0.063 mg/L | ≦0.063 mg/L | ≦0.063 mg/L | 32 (≈ 47.9 µM) | ≤ 0.063 | 0.5 (≈ 0.748 µM) | 1 (≈ 1.5 µM) | 0.125 (≈ 0.187 µM) | ≤ 0.063 | ≤ 0.063 | 8 (≈ 12 µM) | 2 (≈ 2.99 µM) | 0.125 (≈ 0.187 µM) | 1 (≈ 1.5 µM) | 0.5 (≈ 0.748 µM) | –
8 | CC1(C)[C@H](NC(=O)/C(=N\OCCOc2ccc(C3=NCC(CN)N3)cc2)c2csc(N)n2)C(=O)N1OS(=O)(=O)O (stereo partly drawn) [Example 91, (2Z)-2-[(2-{4-[5-(Aminomethyl)-4,5-dihydro-1H-imidazol-2-yl]phenoxy}ethoxy)imino]-2-(2-amino-1,3-thiazol-4-yl)-N-[(3S)-2,2-dimethyl-4-oxo-1-(sulfooxy)azetidin-3-yl]ethanamide] | 0.25 (≈ 0.419 µM) | 4 (≈ 6.7 µM) | 0.125 (≈ 0.21 µM) | 4 (≈ 6.7 µM) | 16 (≈ 26.8 µM) | 0.125 µg/mL | 0.125 µg/mL | 0.125 µg/mL | 2 (≈ 3.35 µM) | ≤ 0.063 | ≤ 0.063 | 2 (≈ 3.35 µM) | 0.125 (≈ 0.21 µM) | 0.125 (≈ 0.21 µM) | 0.25 (≈ 0.419 µM) | 4 (≈ 6.7 µM) | 1 (≈ 1.68 µM) | 0.125 (≈ 0.21 µM) | 2 (≈ 3.35 µM) | 2 (≈ 3.35 µM) | MIC [7, 19]: ≤ 0.063 µg/mL
